The numbers were not newly measured in patent publication US20260232672A1, “COMPOSITIONS AND METHODS OF TREATING FEMALE SEXUAL DYSFUNCTION AND FEMALE SEXUAL AROUSAL DISORDER” (Daré Bioscience, Inc., priority 2023, published 2026), which cites them from elsewhere.

This data set concerns pre- and postmenopausal women afflicted with broad-spectrum FSD. The settings on record: oral.

Molecules are shown by their SMILES.

Consider `CCCc1nn(C)c2c(=O)[nH]c(-c3cc(S(=O)(=O)N4CCN(C)CC4)ccc3OCC)nc12.O=C(O)CC(O)(CC(=O)O)C(=O)O` [oral sildenafil citrate, 1-[4-ethoxy-3-(6,7-dihydro-1-methyl-7-oxo-3-propyl-1H-pyrazolo[4,3-d]pyrimidin-5-yl)phenylsulfonyl]-4-methylpiperazine citrate salt], for which, under “doses 25 mg-100 mg, previous clinical trials in women”, the “rates of side effects” value is listed as “high rates of side effects”. For the same compound, the efficacy versus placebo result (published placebo-controlled trials) was “marginal efficacy versus placebo”.
